The values below come from patent US4217271A, “Basic azo dyestuffs containing a n-picolinium alkylene amino phenyl group” (Imperial Chemical Industries Limited, priority 1977, dated 1980).

Bounds are passed on as bounds.

A short description of the data set: Solubility in water (grams/100 ml) at 30, 60 and 90° C. Conditions: for Solubility in water: chloride anion. The data set is classed as physicochemical.

As for `CCN(CC[n+]1ccc(C)cc1)c1ccc(N=Nc2ccc([N+](=O)[O-])cc2Cl)cc1` [Example 1, 4-nitro-2-chloroaniline N-2-(N'-ethylanilino)-ethyl-4-methylpyridinium chloride], the Solubility in water runs as follows: (30° C.) 2.5 grams/100 ml; (60° C.) 62 grams/100 ml; (90° C.) over 100 grams/100 ml. Besides, the “aqueous solubility compared with Basic Red 18:1” value (both dyestuffs having a chloride anion) was “superior aqueous solubility”.
